Results reported in patent US7560487B2, “Use of (R)—ibuprofen methanesulfonamide and salts thereof in the treatment and prevention of rejection reactions of transplanted organs” (Dompé Pha.r.ma S.p.A., priority 2001, dated 2009).
Values joined by “and” are separate entries in the source; they are usually repeats but may differ in a detail not shown here. Equal values may be shown once.

Legend:
[1] = tested on: rats receiving allogeneic kidney transplant; test: Plasma creatinine after allogeneic kidney transplant; format: in vivo, Brown Norway rats; conditions: for Plasma Creatinine 16 h / Plasma Creatinine 24 h: allogeneic, 6 h cold ischemia
Description: The following experimental group of animals were considered:
Group 1 (n=9) Brown Norway rats recipients of a kidney graft of Lewis rats exposed to 6 hours cold ischemia and treated with vehicle.
Group 2 (n=5) Brown Norway rats recipients of a kidney graft of Lewis rats exposed to 6 hours cold ischemia and treated with the IL-8 inhibitor DF 1681B.
The recipients were pretreated the day before the experiment (20 mg/kg s.c.). The animal received an intravenous injection of DF 1681B (20 mg/kg) immediately before reperfusion of the transplanted kidney. Additional administration of the compound (20 mg/kg s.c.) was performed 2 hours after transplantation. Control animals were given vehicle at the same time points and using the same administration method as for animals treated with DF 1681B.
(§1) Data were analyzed using the non-parametric Kruskal-Wallis test for multiple comparisons or the Tukey-Cicchetti test.

[2] = tested on: models of ischemia/reperfusion injury; test: PMN infiltration in models of ischemia/reperfusion injury, mice; format: in vivo
[3] = tested on: models of ischemia/reperfusion injury; test: PMN infiltration in models of ischemia/reperfusion injury, rats; format: in vivo
[4] = tested on: rats receiving syngeneic kidney transplant; test: Immunohistochemical granulocyte count in transplanted kidney, syngeneic transplant; format: in vivo, Lewis rats; design: Granulocytes Intravasc.: unit not given here; conditions: for Granulocytes Inrterstitial / Granulocytes Intraglom / Granulocytes Intravasc. / Granulocytes Periglom. / Granulocytes Perivasc.: 24 h post-transplant
Description: (§2) Adult male Lewis rats (RT11) (Charles River, Calco Italia S.p.A, Italy) were used. All animals were allowed free access to food and water. The study was performed in a syngeneic kidney transplant model using such rats as donor and graft recipients. Donor animals were anaesthetized with leptofen. The left kidney was prepared by freeing the ureter from the attachments. The renal artery was separated from the renal vein by dissection. The donor kidney and ureter were removed “en bloc” and flushed with Belzer (UW) containing 1000 U/ml of heparin. Then the kidney was placed in an iced Belzer (UW) solution for 4-6 hours (cold ischemia) until transplant. Recipients were prepared by removal of the left kidney. Animal treatment with DF 1681B is summarized below. Kidney grafts were washed with saline solution before transplant. An anastomosis was created between the recipient and the donor renal artery as well as renal vein with end-to-end anastomosis. Vascular clamps were released after 30 minutes (warm ischemia). Donor and recipient ureters were attached end-to-end. The native right kidney was then removed. Animals were placed in individual metabolic cages for measurements of daily urine output as an index of renal function recovery. After 16 and 24 hours, renal function was assessed by measuring plasma creatinine concentration. Twenty-four hours after kidney transplantation, the animals were sacrificed. The kidney graft was removed, cut in slices and put in Dubosq-Brazil solution for the analysis of conventional histology by light microscopy. Moreover, additional kidney fragments were frozen in liquid nitrogen and used for immunohistochemical analysis of inflammatory cell infiltrate (polymorphonuclear cells, MHC class II positive cells).
(§3) Group 1 (n.=3) rats recipients of a kidney graft exposed to 4 hours cold ischemia and treated with the IL-8 inhibitor DF 1681B.
(§4) Group 2 (n.=3) rats recipients of a kidney graft exposed to 4 hours cold ischemia and treated with the vehicle.
(§5) Group 3 (n.=3) rats recipients of a kidney graft exposed to 6 hours cold ischemia and treated with the IL-8 inhibitor DF 1681B.
(§6) Group 4 (n.=3) rats recipients of a kidney graft exposed to 6 hours cold ischemia and treated with the vehicle.
(§7) The recipients were pretreated the day before the experiment (15 mg/kg s.c.). The animals received an intravenous injection of DF 1681B (15 mg/kg) immediately before reperfusion of the transplanted kidney. Additional administration of the compound (15 mg/kg s.c.) was performed 2 hours after transplantation. Control animals were given vehicle at the same time points and using the same administration method as for animals treated with DF 1681B.
as §1

[5] = tested on: rats receiving syngeneic kidney transplant; test: Plasma creatinine after syngeneic kidney transplant (cold ischemia/reperfusion); format: in vivo, Lewis rats; conditions: for Plasma Creatinine 16 h: 16 h after transplant; for Plasma Creatinine 16 h / Plasma Creatinine 24 h: 15 mg/kg; for Plasma Creatinine 24 h: 24 h after transplant
Description: as §2, §3, §4, §5, §6, §7, §1

[6] = tested on: rats receiving syngeneic kidney transplant; test: MHC II positive interstitial cell count in transplanted kidney, syngeneic transplant; format: in vivo, Lewis rats; design: MHC II+ interstitial cells: unit not given here
Description: as §2, §3, §4, §5, §6, §7, §1

IL-8 = conditions: in vitro; described in WO 00/24710; cited from earlier work
[7] = tested on: rats receiving syngeneic kidney transplant; test: Semi-quantitative histological score for renal damage, syngeneic transplant; format: in vivo, Lewis rats
Description: as §2, §3, §4, §5, §6, §7, §1

mouse model = test: Chemotaxis in vivo in a mouse model
[8] = individual Brown Norway rats, 20 mg/kg s.c./i.v./s.c.
[9] = 4 h cold ischemia, group mean ± SD
[10] = 4 h cold ischemia, individual rats, high-power fields (X400)
[11] = 6 h cold ischemia, group mean ± SD
[12] = 6 h cold ischemia, individual rats, high-power fields (X400)
[13] = 4 h cold ischemia, individual rats, 15 mg/kg s.c./i.v./s.c.
[14] = 6 h cold ischemia, individual rats
[15] = 4 h cold ischemia, 24 h after transplantation, individual rats
[16] = 6 h cold ischemia, 24 h after transplantation, individual rats

CC(C)Cc1ccc([C@@H](C)C(=O)NS(C)(=O)=O)cc1.NCCCC[C@H](N)C(=O)O [DF1681B, R(−)-N-[2-(4-Isobutylphenyl)propionyl]-methanesulfonamide salt of L(+)-lysine]
Serum creatinine levels, effect in words ([1]; allogeneic transplant, 20 mg/kg, 16 and 24 hours): significant prevention of increased serum creatinine levels
Plasma Creatinine 16 h [1, 8]: 1.05 mg/dL and 1.2 mg/dL and 1 mg/dL and 0.84 mg/dL and 1.01 mg/dL
Plasma Creatinine 24 h [1, 8]: 1.3 mg/dL and 1.39 mg/dL and 0.87 mg/dL and 0.69 mg/dL and 0.85 mg/dL
Plasma Creatinine 16 h ([1]; group mean, 20 mg/kg): 1.02 mg/dL
Plasma Creatinine 24 h ([1]; group mean, 20 mg/kg): 1.02 mg/dL
Inhibition of PMN infiltration [2]: inhibit PMN infiltration
Inhibition of PMN infiltration [3]: inhibit PMN infiltration
Granulocytes Inrterstitial [4, 9]: 12.1 ± 3.7
Granulocytes Intraglom [4, 9]: 9.5 ± 3.9
Granulocytes Intravasc. [4, 9]: 3.2 ± 4.3
Granulocytes Periglom. [4, 9]: 5.4 ± 1.5
Granulocytes Perivasc. [4, 9]: 5.4 ± 2.5
Granulocytes Inrterstitial [4, 10]: 9.1 ± 6.4 and 11 ± 4.8 and 16.2 ± 8.3
Granulocytes Intraglom [4, 10]: 7.4 ± 4.7 and 14 ± 15.4 and 7 ± 2.9
Granulocytes Intravasc. [4, 10]: 1.5 ± 2.4 and 0 and 8 ± 5.3
Granulocytes Periglom. [4, 10]: 5.3 ± 4.5 and 4 and 7 ± 8
Granulocytes Perivasc. [4, 10]: 3 ± 0.8 and 8 ± 2.6 and 5.3 ± 4.6
Granulocyte count in the intraglomerular area, effect in words ([4]; 4 hour cold ischemia): numerically but not significantly lowered
PMN infiltrate, effect in words ([4]; 4 hour cold ischemia): decreases the PMN infiltrate
Granulocytes Inrterstitial [4, 11]: 3 ± 1.7 cells per high-power field
Granulocytes Intraglom [4, 11]: 5.5 ± 2 cells per high-power field
Granulocytes Intravasc. [4, 11]: 1.1 ± 1.7
Granulocytes Periglom. [4, 11]: 2.1 ± 1.1
Granulocytes Perivasc. [4, 11]: 4.1 ± 2.9
Granulocytes Inrterstitial [4, 12]: 2.5 ± 4.6 and 4.8 ± 5.6 and 1.6 ± 1.2
Granulocytes Intraglom [4, 12]: 5.0 ± 6.0 and 3.7 ± 3.0 and 7.7 ± 6.5
Granulocytes Intravasc. [4, 12]: 0.2 ± 0.4 and 0 and 3.0 ± 4.0
Granulocytes Periglom. [4, 12]: 1.0 ± 1.8 and 3.2 ± 1.9 and 2.2 ± 1.2
Granulocytes Perivasc. [4, 12]: 1.0 ± 1.3 and 6.8 ± 8.9 and 4.5 ± 4.4
Interstitial inflammatory cells, effect in words ([4]; 6 hour ischemia, p<0.01): significantly lowered
Plasma Creatinine 16 h [5, 9]: 0.91 ± 0.18° mg/dl
Plasma Creatinine 16 h [5, 13]: 1.09 mg/dL and 0.74 mg/dL and 0.89 mg/dL
Plasma Creatinine 24 h [5, 9]: 0.78 ± 0.19° mg/dl
Plasma Creatinine 24 h [5, 13]: 0.99 mg/dL and 0.64 mg/dL and 0.71 mg/dL
Renal function (plasma creatinine), effect in words ([5]; 4 h ischemic kidneys): protected animals from renal function deterioration
Plasma Creatinine 16 h [5, 11]: 2.23 ± 0.36*Δ mg/dl
Plasma Creatinine 16 h [5, 14]: 2.32 mg/dL and 2.54 mg/dL and 1.84 mg/dL
Plasma Creatinine 24 h [5, 11]: 1.83 ± 0.09 mg/dL
Plasma Creatinine 24 h [5, 14]: 1.89 mg/dL and 1.87 mg/dL and 1.72 mg/dL
Plasma creatinine concentrations, effect in words ([5]; 6 hours ischemia): significantly reduced plasma creatinine concentrations
Number of MHC class II cells, effect in words ([6]; 4 and 6 hour ischemia): not affected
MHC II+ interstitial cells [6, 9]: 8.7 ± 3.4
MHC II+ interstitial cells ([6]; 4 h cold ischemia, individual rats, high-power fields (×400)): 5.1 ± 6.2 and 9.1 ± 2 and 11.9 ± 6.3
MHC II+ interstitial cells [6, 11]: 14.4 ± 4.7
MHC II+ interstitial cells ([6]; 6 h cold ischemia, individual rats, high-power fields (×400)): 10.5 ± 4.7 and 13.1 ± 7 and 19.7 ± 3.3
Inhibition of the chemotaxis of neutrophils induced by IL-8 (IL-8): selective in vitro inhibitors
Histological damage Glomerular (score) [7, 15]: 0 score
Histological damage Interstitial (score) [7, 15]: 2.5 score and 2 score (2×)
Histological damage Tubular (score) [7, 15]: 1.5 score and 0.7 score and 0.5 score
Histological damage Glomerular (score) [7, 9]: 0 score
Histological damage Interstitial (score) [7, 9]: 2 ± 0.3 score
Histological damage Tubular (score) [7, 9]: 0.7 ± 0.6 score
Tubular changes, effect in words ([7]; 4 hour ischemia): attenuated but did not normalize tubular changes
Histological damage Glomerular (score) [7, 16]: 0 score
Histological damage Interstitial (score) [7, 16]: 3 score
Histological damage Tubular (score) [7, 16]: 1.7 score (2×) and 1.2 score
Histological damage Glomerular (score) [7, 11]: 0 score
Histological damage Interstitial (score) [7, 11]: 3 score
Histological damage Tubular (score) [7, 11]: 1.5 ± 0.3 score
Focal ischemic changes in the glomeruli, effect in words ([7]; 6 hour ischemia): prevented
Inhibition of chemotaxis in vivo (mouse model): inhibit chemotaxis in vivo

CC(C)Cc1ccc([C@@H](C)C(=O)NS(C)(=O)=O)cc1 [(R)-ibuprofen methanesulfonamide, R(−)-N-[2-(4-Isobutylphenyl)propionyl]-methanesulfonamide]
Inhibition of the chemotaxis of neutrophils induced by IL-8 (IL-8): selective in vitro inhibitors
